Data as given in patent US10702542B2, “Glycan therapeutics and related methods thereof” (priority 2015, dated 2020).

Tests used:
[1] = system: Clostridium difficile (strain VPI 10463 (ATCC-43255)); assay: Mouse model of Clostridium difficile infection: disease-associated phenotypes; type: in vivo, mice (female C57BL/6)
Protocol: This experiment was conducted to analyze the effects of glycan therapeutics in a mouse model of Clostridium difficile infection (Chen et al, 2008, A Mouse Model of Clostridium difficile—Associated Disease. Gastroenterology 135(6), 1984-1992). In this model, normal mice were exposed to an antibiotic regimen that renders them susceptible to C. difficile infection and disease symptoms, similar with respect to their development and manifestation of human clinical disease. In humans, the disease is most often the result of exposure to broad spectrum antibiotics which is thought to result in intestinal dysbiosis and subsequent increased colonic colonization with C. difficile. The increased bio-burden of C. difficile leads to toxin production by the bacterium and colonic inflammation. Clinical manifestations in humans include diarrhea, weight loss, intestinal inflammation, fever and dehydration. The clinical incidence of C. difficile infection and disease is about 750,000 cases per year in the US.
(§1) Mice (female C57BL/6, 8-10 weeks old, 16-18 grams each; Harlan Laboratories, Indianapolis, Ind.) were housed in groups of 3 per cage, with 4 cages per treatment group. Mice were exposed to a cocktail of antibiotics in their drinking water for a period of 9 days, starting on day −14, fourteen days before Clostridium difficile challenge on day 0. The antibiotic cocktail consisted of 1% glucose, kanamycin (0.5 mg/ml), gentamicin (0.044 mg/ml), colistin (1062.5 U/ml), metronidazole (0.269 mg/ml), ciprofloxacin (0.156 mg/ml), ampicillin (0.1 mg/ml) and vancomycin (0.056 mg/ml). Three days prior to Clostridium difficile challenge (on Day −3), mice received a single dose of clindamycin (10 mg/kg) in a volume of 0.5 mL distilled water by oral gavage (PO) (see Table 10). All chemicals were purchased from Sigma-Aldrich Corp. (St. Louis, Mo.). On day 0, mice were challenged with Clostridium difficile (strain VPI 10463 (ATCC-43255)) spores at approximately 4.5 log10 spores per mouse, PO, in a dose volume of 0.5 mL distilled water.
Disease-associated phenotypes were recorded for a duration of ten days starting on the day of Clostridium difficile challenge (on day 0) through day 10. The phenotypes, including lethargy, hunched posture and ruffled coat, wet tail/abdomen and hypothermia were scored from 0 to 4: Normal=0; Lethargic=1; Lethargic+Hunched=2; Lethargic+Hunched+Wet tail/abdomen (diarrhea)=3; and Lethargic+Hunched+Wet tail/abdomen+Hypothermic=4. Death (day 0 to day 10 or 11) and weight (day 1 to day 7 and day 10) of the animals was also monitored and recorded.
A treatment's ability to protect animals from death through day 6 in these experiments indicates disease prevention, e.g., in a human.
Effects of treatments was assessed by comparing the disease-associated phenotypes in glycan-treated, untreated (plain water) and vancomycin-treated groups. FOS is a commercially-available, non-digestible fructooligosaccharide.

gut microbiota = assay: Mouse model of Clostridium difficile infection: shifts in microbial gut constituents (16S rRNA); type: in vivo, mice (female C57BL/6); settings: Day 6, FIG. 13; predicted from 16S rRNA sequencing using PICRUST
Protocol: as §1
To determine how the gut microbiota composition responds to treatment with glycan therapeutics, 16S rRNA sequencing of fecal pellets on the V4 variable region using standard protocols from the Earth Microbiome Project was performed (www.earthmicrobiome.org/emp-standard-protocols/). […]

[2] = vancomycin PO gavage QD days 0 to 4

`CN[C@H](CC(C)C)C(=O)N[C@H]1C(=O)N[C@@H](CC(N)=O)C(=O)N[C@H]2C(=O)N[C@H]3C(=O)N[C@H](C(=O)N[C@H](C(=O)O)c4cc(O)cc(O)c4-c4cc3ccc4O)[C@H](O)c3ccc(c(Cl)c3)Oc3cc2cc(c3O[C@@H]2O[C@H](CO)[C@@H](O)[C@H](O)[C@H]2O[C@H]2C[C@](C)(N)[C@H](O)[C@H](C)O2)Oc2ccc(cc2Cl)[C@H]1O` [Vancomycin, vancomycin] was tested, and the “animal survival versus animals treated with water (vehicle)” value ([1]; Kaplan-Meier, FIG. 10) was “significant difference”, the “clinical score of survivors” value ([1]; score 0 to 4, after end of treatment, days 7 to 10/11) was “above 0” and the “animals died by day 10” value [1, 2] was 17%. For the same compound, the “animals survived to day 7” value [1, 2] was 100%, the “clinical signs on day 10” value [1, 2] was “exhibited clinical signs” and the “predicted functional potential of the gut microbiome to convert primary bile acids to secondary bile acids” value (gut microbiota) was “not observed”.
